ChEMBL document CHEMBL5154747, “Discovery of new carbonic anhydrase IX inhibitors as anticancer agents by toning the hydrophobic and hydrophilic rims of the active site to encounter the dual-tail approach” (Eur J Med Chem, 2022)

Each compound was assayed on UACC-257 (assay: Anticancer activity against human UACC-257 cells assessed as cell growth inhibition at 10 uM incubated for 48 hrs by SRB assay relative to control). Conditions: read-out: GI.
Type: functional

`NS(=O)(=O)c1ccc(Nc2nc(N/N=C/c3cccc4ccccc34)nc(Nc3ccccc3)n2)cc1` and `CCCCc1nc(/C=N/Nc2nc(Nc3ccccc3)nc(Nc3ccc(S(N)(=O)=O)cc3)n2)c(Cl)[nH]1` cannot be ordered by inhibition of growth at 10 µM: < 10% for the first, < 10% for the second.

These compounds were tested on BT-549 (assay: Anticancer activity against human BT-549 cells assessed as cell growth inhibition at 10 uM incubated for 48 hrs by SRB assay relative to control). Conditions: read-out: GI.
Type: functional

Going from `NS(=O)(=O)c1ccc(Nc2nc(N/N=C/c3cccc4ccccc34)nc(Nc3ccccc3)n2)cc1` to `CCCCc1nc(/C=N/Nc2nc(Nc3ccccc3)nc(Nc3ccc(S(N)(=O)=O)cc3)n2)c(Cl)[nH]1`, the inhibition of growth at 10 µM rises from < 10% to 52%.

These compounds were tested on TK-10 (assay: Anticancer activity against human TK-10 cells assessed as cell growth inhibition at 10 uM incubated for 48 hrs by SRB assay relative to control). Conditions: read-out: GI.
Type: functional

`NS(=O)(=O)c1ccc(Nc2nc(N/N=C/c3cccc4ccccc34)nc(Nc3ccccc3)n2)cc1` and `CCCCc1nc(/C=N/Nc2nc(Nc3ccccc3)nc(Nc3ccc(S(N)(=O)=O)cc3)n2)c(Cl)[nH]1` cannot be ordered by inhibition of growth at 10 µM: < 10% for the first, < 10% for the second.

These compounds were tested on NCI-H322M (assay: Anticancer activity against human NCI-H322M cells assessed as cell growth inhibition at 10 uM incubated for 48 hrs by SRB assay relative to control). Conditions: read-out: GI.
Type: functional

`NS(=O)(=O)c1ccc(Nc2nc(N/N=C/c3cccc4ccccc34)nc(Nc3ccccc3)n2)cc1` and `CCCCc1nc(/C=N/Nc2nc(Nc3ccccc3)nc(Nc3ccc(S(N)(=O)=O)cc3)n2)c(Cl)[nH]1` cannot be ordered by inhibition of growth at 10 µM: < 10% for the first, < 10% for the second.

The compounds below were run on PC-3 (assay: Anticancer activity against human PC-3 cells assessed as cell growth inhibition at 10 uM incubated for 48 hrs by SRB assay relative to control). Conditions: read-out: GI.
Type: functional

Going from `NS(=O)(=O)c1ccc(Nc2nc(N/N=C/c3cccc4ccccc34)nc(Nc3ccccc3)n2)cc1` to `CCCCc1nc(/C=N/Nc2nc(Nc3ccccc3)nc(Nc3ccc(S(N)(=O)=O)cc3)n2)c(Cl)[nH]1`, the inhibition of growth at 10 µM falls from 44% to 17%.

What follows are compounds tested on MCF7 (assay: Anticancer activity against human MCF7 cells assessed as cell growth inhibition at 10 uM incubated for 48 hrs by SRB assay relative to control). Conditions: read-out: GI.
Type: functional

Going from `NS(=O)(=O)c1ccc(Nc2nc(N/N=C/c3cccc4ccccc34)nc(Nc3ccccc3)n2)cc1` to `CCCCc1nc(/C=N/Nc2nc(Nc3ccccc3)nc(Nc3ccc(S(N)(=O)=O)cc3)n2)c(Cl)[nH]1`, the inhibition of growth at 10 µM rises from 46% to 53%.

What follows are compounds tested on SF-295 (assay: Anticancer activity against human SF-295 cells assessed as cell growth inhibition at 10 uM incubated for 48 hrs by SRB assay relative to control). Conditions: read-out: GI.
Type: functional

Compared with `NS(=O)(=O)c1ccc(Nc2nc(N/N=C/c3cccc4ccccc34)nc(Nc3ccccc3)n2)cc1`, `CCCCc1nc(/C=N/Nc2nc(Nc3ccccc3)nc(Nc3ccc(S(N)(=O)=O)cc3)n2)c(Cl)[nH]1` is lower in inhibition of growth at 10 µM: 29% for the first, < 10% for the second.

These compounds were tested on NCI/ADR-RES (assay: Anticancer activity against human NCI/ADR-RES cells assessed as cell growth inhibition at 10 uM incubated for 48 hrs by SRB assay relative to control). Conditions: read-out: GI.
Type: functional

`NS(=O)(=O)c1ccc(Nc2nc(N/N=C/c3cccc4ccccc34)nc(Nc3ccccc3)n2)cc1` and `CCCCc1nc(/C=N/Nc2nc(Nc3ccccc3)nc(Nc3ccc(S(N)(=O)=O)cc3)n2)c(Cl)[nH]1` cannot be ordered by inhibition of growth at 10 µM: < 10% for the first, < 10% for the second.

What follows are compounds tested on MDA-MB-435 (assay: Anticancer activity against human MDA-MB-435 cells assessed as cell growth inhibition at 10 uM incubated for 48 hrs by SRB assay relative to control). Conditions: read-out: GI.
Type: functional

Going from `NS(=O)(=O)c1ccc(Nc2nc(N/N=C/c3cccc4ccccc34)nc(Nc3ccccc3)n2)cc1` to `CCCCc1nc(/C=N/Nc2nc(Nc3ccccc3)nc(Nc3ccc(S(N)(=O)=O)cc3)n2)c(Cl)[nH]1`, the inhibition of growth at 10 µM falls from 41% to < 10%.

The compounds below were run on DU-145 (assay: Anticancer activity against human DU-145 cells assessed as cell growth inhibition at 10 uM incubated for 48 hrs by SRB assay relative to control). Conditions: read-out: GI.
Type: functional

First: NS(=O)(=O)c1ccc(Nc2nc(N/N=C/c3cccc4ccccc34)nc(Nc3ccccc3)n2)cc1
Second: CCCCc1nc(/C=N/Nc2nc(Nc3ccccc3)nc(Nc3ccc(S(N)(=O)=O)cc3)n2)c(Cl)[nH]1
The inhibition of growth at 10 µM of the first is higher: 31% for the first, 15% for the second.

The compounds below were run on A498 (assay: Anticancer activity against human A498 cells assessed as cell growth inhibition at 10 uM incubated for 48 hrs by SRB assay relative to control). Conditions: read-out: GI.
Type: functional

Compared with `NS(=O)(=O)c1ccc(Nc2nc(N/N=C/c3cccc4ccccc34)nc(Nc3ccccc3)n2)cc1`, `CCCCc1nc(/C=N/Nc2nc(Nc3ccccc3)nc(Nc3ccc(S(N)(=O)=O)cc3)n2)c(Cl)[nH]1` is higher in inhibition of growth at 10 µM: < 10% for the first, 10% for the second.

Each compound was assayed on OVCAR-4 (assay: Anticancer activity against human OVCAR-4 cells assessed as cell growth inhibition at 10 uM incubated for 48 hrs by SRB assay relative to control). Conditions: read-out: GI.
Type: functional

First: NS(=O)(=O)c1ccc(Nc2nc(N/N=C/c3cccc4ccccc34)nc(Nc3ccccc3)n2)cc1
Second: CCCCc1nc(/C=N/Nc2nc(Nc3ccccc3)nc(Nc3ccc(S(N)(=O)=O)cc3)n2)c(Cl)[nH]1
The inhibition of growth at 10 µM of the first is lower: 16% for the first, 19% for the second.

What follows are compounds tested on SK-MEL-2 (assay: Anticancer activity against human SK-MEL-2 cells assessed as cell growth inhibition at 10 uM incubated for 48 hrs by SRB assay relative to control). Conditions: read-out: GI.
Type: functional

First: NS(=O)(=O)c1ccc(Nc2nc(N/N=C/c3cccc4ccccc34)nc(Nc3ccccc3)n2)cc1
Second: CCCCc1nc(/C=N/Nc2nc(Nc3ccccc3)nc(Nc3ccc(S(N)(=O)=O)cc3)n2)c(Cl)[nH]1
The inhibition of growth at 10 µM of the first is lower: 17% for the first, 34% for the second.

The compounds below were run on HOP-62 (assay: Anticancer activity against human HOP-62 cells assessed as cell growth inhibition at 10 uM incubated for 48 hrs by SRB assay relative to control). Conditions: read-out: GI.
Type: functional

First: NS(=O)(=O)c1ccc(Nc2nc(N/N=C/c3cccc4ccccc34)nc(Nc3ccccc3)n2)cc1
Second: CCCCc1nc(/C=N/Nc2nc(Nc3ccccc3)nc(Nc3ccc(S(N)(=O)=O)cc3)n2)c(Cl)[nH]1
The inhibition of growth at 10 µM of the first is higher: 11% for the first, < 10% for the second.

What follows are compounds tested on NCI-H226 (assay: Anticancer activity against human NCI-H226 cells assessed as cell growth inhibition at 10 uM incubated for 48 hrs by SRB assay relative to control). Conditions: read-out: GI.
Type: functional

Compared with `NS(=O)(=O)c1ccc(Nc2nc(N/N=C/c3cccc4ccccc34)nc(Nc3ccccc3)n2)cc1`, `CCCCc1nc(/C=N/Nc2nc(Nc3ccccc3)nc(Nc3ccc(S(N)(=O)=O)cc3)n2)c(Cl)[nH]1` is lower in inhibition of growth at 10 µM: 19% for the first, < 10% for the second.

What follows are compounds tested on KM12 (assay: Anticancer activity against human KM12 cells assessed as cell growth inhibition at 10 uM incubated for 48 hrs by SRB assay relative to control). Conditions: read-out: GI.
Type: functional

Compared with `NS(=O)(=O)c1ccc(Nc2nc(N/N=C/c3cccc4ccccc34)nc(Nc3ccccc3)n2)cc1`, `CCCCc1nc(/C=N/Nc2nc(Nc3ccccc3)nc(Nc3ccc(S(N)(=O)=O)cc3)n2)c(Cl)[nH]1` is lower in inhibition of growth at 10 µM: 27% for the first, < 10% for the second.

These compounds were tested on MDA-MB-231 (assay: Anticancer activity against human MDA-MB-231 cells assessed as cell growth inhibition at 10 uM incubated for 48 hrs by SRB assay relative to control). Conditions: read-out: GI.
Type: functional

Compared with `NS(=O)(=O)c1ccc(Nc2nc(N/N=C/c3cccc4ccccc34)nc(Nc3ccccc3)n2)cc1`, `CCCCc1nc(/C=N/Nc2nc(Nc3ccccc3)nc(Nc3ccc(S(N)(=O)=O)cc3)n2)c(Cl)[nH]1` is higher in inhibition of growth at 10 µM: < 10% for the first, 33% for the second.

What follows are compounds tested on MOLT-4 (assay: Anticancer activity against human MOLT-4 cells assessed as cell growth inhibition at 10 uM incubated for 48 hrs by SRB assay relative to control). Conditions: read-out: GI.
Type: functional

First: NS(=O)(=O)c1ccc(Nc2nc(N/N=C/c3cccc4ccccc34)nc(Nc3ccccc3)n2)cc1
Second: CCCCc1nc(/C=N/Nc2nc(Nc3ccccc3)nc(Nc3ccc(S(N)(=O)=O)cc3)n2)c(Cl)[nH]1
The inhibition of growth at 10 µM of the first is higher: 84% for the first, 58% for the second.

The compounds below were run on A549 (assay: Anticancer activity against human A549 cells assessed as cell growth inhibition at 10 uM incubated for 48 hrs by SRB assay relative to control). Conditions: read-out: GI.
Type: functional

Compared with `NS(=O)(=O)c1ccc(Nc2nc(N/N=C/c3cccc4ccccc34)nc(Nc3ccccc3)n2)cc1`, `CCCCc1nc(/C=N/Nc2nc(Nc3ccccc3)nc(Nc3ccc(S(N)(=O)=O)cc3)n2)c(Cl)[nH]1` is lower in inhibition of growth at 10 µM: 26% for the first, < 10% for the second.

The compounds below were run on SF-268 (assay: Anticancer activity against human SF-268 cells assessed as cell growth inhibition at 10 uM incubated for 48 hrs by SRB assay relative to control). Conditions: read-out: GI.
Type: functional

Going from `NS(=O)(=O)c1ccc(Nc2nc(N/N=C/c3cccc4ccccc34)nc(Nc3ccccc3)n2)cc1` to `CCCCc1nc(/C=N/Nc2nc(Nc3ccccc3)nc(Nc3ccc(S(N)(=O)=O)cc3)n2)c(Cl)[nH]1`, the inhibition of growth at 10 µM rises from 12% to 34%.
